According to patent US20260207614A1, “IRAK4 DEGRADERS AND USES THEREOF” (Kymera Therapeutics, Inc., priority 2022, published 2026):

Key:
[1] = Diastereomer interconversion; type: physicochemical; settings: in vitro and in vivo
Source text: (S,R,R)-Compound A and (R,R,R)-Compound A, which are designated as Compound B and Compound C, respectively. In some embodiments, Compound A is Compound B. In some embodiments, Compound A is Compound C. In some embodiments, Compound A is a mixture of Compound B and Compound C. […] In some embodiments, Compound A, Compound B, Compound C, or a pharmaceutically acceptable salt thereof, is amorphous. In some embodiments, Compound A, Compound B, Compound C, or a pharmaceutically acceptable salt thereof, is in crystal form.

[2] = system: patients with hidradenitis suppurativa (HS); settings: Phase 2 and 3, week 4; cited from earlier work
[3] = system: patients with atopic dermatitis (AD); settings: Phase 3, week 4; cited from earlier work

Cn1c(=O)n([C@H]2CCC(=O)NC2=O)c2cccc(C#CCOC3CCN(C[C@H]4CC[C@H](n5cc(NC(=O)c6cnn7ccc(N8C[C@H]9C[C@@H]8CO9)nc67)c(C(F)F)n5)CC4)CC3)c21 [Compound B, 5-((1R,4R)-2-oxa-5-azabicyclo[2.2.1]heptan-5-yl)-N-(3-(difluoromethyl)-1-((1r,4R)-4-((4-((3-(1-((S)-2,6-dioxopiperidin-3-yl)-3-methyl-2-oxo-2,3-dihydro-1H-benzo[d]imidazol-4-yl)prop-2-yn-1-yl)oxy)piperidin-1-yl)methyl)cyclohexyl)-1H-pyrazol-4-yl)pyrazolo[1,5-a]pyrimidine-3-carboxamide]
interconversion of diastereomers [1]: interconvert rapidly

Cn1c(=O)n([C@@H]2CCC(=O)NC2=O)c2cccc(C#CCOC3CCN(C[C@H]4CC[C@H](n5cc(NC(=O)c6cnn7ccc(N8C[C@H]9C[C@@H]8CO9)nc67)c(C(F)F)n5)CC4)CC3)c21 [Compound C, 5-((1R,4R)-2-oxa-5-azabicyclo[2.2.1]heptan-5-yl)-N-(3-(difluoromethyl)-1-((1r,4R)-4-((4-((3-(1-((R)-2,6-dioxopiperidin-3-yl)-3-methyl-2-oxo-2,3-dihydro-1H-benzo[d]imidazol-4-yl)prop-2-yn-1-yl)oxy)piperidin-1-yl)methyl)cyclohexyl)-1H-pyrazol-4-yl)pyrazolo[1,5-a]pyrimidine-3-carboxamide]
interconversion of diastereomers [1]: interconvert rapidly

Adalimumab
Responders: AN Count 0/1/2 [2]: 28-47%^2, 3
Responders: HiSCR50 [2]: 29-51%^3, 4
Responders: HiSCR75 [2]: 20%^4
Responders: Pain NRS30 [2]: 39-58%^2, 3, 5
ΔAN Count [2]: −31%^1

Dupilumab
Responders: Peak Pruritis NRS, Past Week/Past 24 Hours, first value [3]: 23%
Responders: Peak Pruritis NRS, Past Week/Past 24 Hours, second value [3]: 40%
ΔEASI [3]: −52%^1
ΔPeak Pruritis NRS: Past Week/Past 24 Hours [3]: −34%^1
